The target in the assay is T1, Apelin receptor (Homo sapiens, UniProt P35414).
T1 sequence (P35414 whole entry): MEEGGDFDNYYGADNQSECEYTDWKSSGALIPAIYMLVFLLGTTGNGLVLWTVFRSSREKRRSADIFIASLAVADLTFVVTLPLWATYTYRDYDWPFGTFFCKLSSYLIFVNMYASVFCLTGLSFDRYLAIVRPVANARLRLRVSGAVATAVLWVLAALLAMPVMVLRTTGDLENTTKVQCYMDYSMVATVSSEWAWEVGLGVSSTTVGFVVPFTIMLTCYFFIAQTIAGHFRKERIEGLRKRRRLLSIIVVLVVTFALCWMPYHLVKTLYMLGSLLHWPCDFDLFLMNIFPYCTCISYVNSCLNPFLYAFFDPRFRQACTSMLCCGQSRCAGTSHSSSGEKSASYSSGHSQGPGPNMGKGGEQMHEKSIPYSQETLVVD
The assay is described as follows: apelin receptor activators, concentration-response – cell-based, luminescence, uHTS hits, dose response (AID 488748).

Setting [1] is: inactive by the depositor's call.

We go through 58 molecules from BindingDB's records for doi:10.7270/Q2NV9GP9 (Burnham Center For Chemical Genomics, 2010).

Structures can show the parent of a compound that is named as a salt.

Broadly, the EC50 is the concentration giving half of the maximal effect. Consider `Cc1ccc(S(=O)(=O)Nc2nc(-c3ccccc3)cs2)cc1`, for which the EC50 is > 100 µM. Still for that read-out and setting: with `Cc1cc(C)c2nc(NNC(=O)c3ccc(S(=O)(=O)N4CCc5ccccc5C4)cc3)sc2c1` the figure was > 100 µM. The same measure, in the same setting: with `Cc1ccc2nc(C(C#N)=Cc3ccc([N+](=O)[O-])o3)[nH]c2c1` the figure was > 100 µM; with `CCC(c1nnnn1CCOC)N(Cc1ccc(C)cc1)Cc1cc2cc(OC)ccc2[nH]c1=O` (stereo not drawn), > 100 µM.

`CCC(C)NC(=O)CSC1=Nc2ccccc2C2=NC(CC(=O)NCc3ccc(F)cc3)C(=O)N12` (stereo not drawn): the concentration giving a half-maximal response (EC50) was > 100 µM. On the same count and under the same terms, with `COc1ccccc1-n1c(SC)nc(O)cc1=O` the figure was 58.4 µM; with `CCCCCCC1=Cc2c/c(=C3/NN=C(c4cc(OC)c(OC)c(OC)c4)O3)c(=O)oc2=CC1=O`, > 100 µM. On the same count and under the same terms, with `COc1cc2c(cc1NC(=O)c1cc(-c3ccncc3)nc3ccc(C)cc13)oc1ccccc12` the figure was > 100 µM; with `Cc1cc(C)c2sc(NNC(=O)c3ccc(S(=O)(=O)N4CCc5ccccc5C4)cc3)nc2c1`, > 100 µM; with `COC/C=C/C1=CC2=CC(=O)C(C)(OC(=O)c3cnc4ccccc4n3)C(=O)C2=CN1c1ccccc1` (stereo not drawn), > 100 µM. In turn, `CCCCC1=CC2=CC(=O)C(C)(OC(=O)CC)C(=O)C2=CN1C1CCCCC1` (stereo not drawn) yielded an EC50 under setting [1] of 77.6 µM. That is a double-digit micromolar value. Turning to `Clc1cccc(CN2CCc3c([nH]c4ccccc34)C2)c1`, the EC50 was > 100 µM.

As to `COc1ccc(CN=Nc2cc(C)nc3ccc(OC)cc23)c(OC)c1`, the EC50 was > 100 µM.

As for `CCOc1cc2[nH]c(=S)n(CCCC(=O)NCc3ccccn3)c(=O)c2cc1OCC`, the EC50 is > 100 µM. Turning to `CCN(CC)CCNC(=O)c1ccc(NC(=O)c2cc(-c3ccco3)nc3ccccc23)cc1`, the EC50 was > 100 µM. Same read-out and setting: with `CC1CCCCN1S(=O)(=O)c1ccc(C(=O)N(CCCN(C)C)c2nc3ccc(Br)cc3s2)cc1` (stereo not drawn) the figure was > 100 µM; with `CCOc1ccc2nc(N(CCCN(C)C)C(=O)c3ccc(S(=O)(=O)N4CCc5ccccc5C4)cc3)sc2c1`, > 100 µM. For `COc1cccc2sc3cc(NCC[C@@H]4CCCN4C)ccc3c(=O)c12`, the EC50 is > 100 µM. In turn, `C=CCSc1nc(O)c(CC)c(=O)n1C(C)CC` (stereo not drawn) [1-butan-2-yl-5-ethyl-6-oxidanyl-2-prop-2-enylsulfanyl-pyrimidin-4-one] had a concentration giving a half-maximal response (EC50) of 78.9 µM. On the same count and under the same terms, the figure for `CCCSc1nc(O)c(CC)c(=O)n1C(C)CC` (stereo not drawn) [1-butan-2-yl-5-ethyl-6-oxidanyl-2-propylsulfanyl-pyrimidin-4-one] is 56.9 µM. On the same count and under the same terms, the figure for `CCC(C)NC(=O)CSC1=Nc2ccccc2C2=NC(CC(=O)NCc3ccccc3)C(=O)N12` (stereo not drawn) [2-[5-[2-(butan-2-ylamino)-2-oxidanylidene-ethyl]sulfanyl-3-oxidanylidene-2H-imidazo[1,2-c]quinazolin-2-yl]-N-(phenylmethyl)ethanamide] is > 100 µM. Still for that read-out and setting: the figure for `Clc1ccccc1CSc1nnc(-c2ccncc2)o1` [2-{[(2-chlorophenyl)methyl]sulfanyl}-5-(pyridin-4-yl)-1,3,4-oxadiazole] is > 100 µM; for `CCOc1ccc2nc(O)c(CN(Cc3ccco3)C(CC)c3nnnn3Cc3ccccc3)cc2c1` (stereo not drawn) [3-({[1-(1-Benzyl-1H-tetrazol-5-yl)-propyl]-furan-2-ylmethyl-amino}-methyl)-6-ethoxy-1H-quinolin-2-one] it is > 100 µM. As to `CCOc1cc2[nH]c(=S)n(CCC(=O)N3CCc4ccccc4C3)c(=O)c2cc1OCC` [3-[3-(3,4-dihydro-1H-isoquinolin-2-yl)-3-oxidanylidene-propyl]-6,7-diethoxy-2-sulfanylidene-1H-quinazolin-4-one], the EC50 was > 100 µM. The same measure, in the same setting: the figure for `CCC(c1nnnn1Cc1ccccc1)N(Cc1cc2cc(OC)ccc2[nH]c1=O)CC1CCCO1` (stereo not drawn) [3-[[1-(1-benzyltetrazol-5-yl)propyl-(oxolan-2-ylmethyl)amino]methyl]-6-methoxy-1H-quinolin-2-one] is > 100 µM; for `COc1ccc2nc(O)c(C(c3nnnn3CC3CCCO3)N3CCc4ccccc4C3)cc2c1` (stereo not drawn) [3-{(3,4-Dihydro-1H-isoquinolin-2-yl)-[1-(tetrahydro-furan-2-ylmethyl)-1H-tetrazol-5-yl]-methyl}-6-methoxy-1H-quinolin-2-one] it is > 100 µM. For `Cc1cc(C)n2nc3nc(N4CCCCC4)nc(-c4ccco4)c3c2n1` [4-(2-furyl)-6,8-dimethyl-2-piperidin-1-ylpyrimido[4',5':3,4]pyrazolo[1,5-a]pyrimidine], the half-maximal effective concentration (EC50) under setting [1] came to 96.6 µM. As to `CCOc1cccc2sc(N(CCCN(C)C)C(=O)c3ccc(S(=O)(=O)N4CCc5ccccc5C4)cc3)nc12` [4-(3,4-dihydro-1H-isoquinolin-2-ylsulfonyl)-N-[3-(dimethylamino)propyl]-N-(4-ethoxy-1,3-benzothiazol-2-yl)benzamide;hydrochloride], the EC50 is > 100 µM. With `Cn1ncc2c(ON=C(N)c3ccc(C(C)(C)C)cc3)ncnc21` [4-tert-butyl-N'-(1-methylpyrazolo[3,4-d]pyrimidin-4-yl)oxy-benzamidine], the EC50 is > 100 µM. `CCOc1cc2[nH]c(=S)n(CCN3CCC(C)CC3)c(=O)c2cc1OCC` [6,7-diethoxy-3-[2-(4-methyl-1-piperidinyl)ethyl]-2-sulfanylidene-1H-quinazolin-4-one]: the EC50 is > 100 µM. On the same count and under the same terms, with `CC(C)(C)OC(=O)NCCCCCc1cn([C@@H](CO)C(=O)NCCCCCCCCCCC(=O)N2CCN(C(=O)OC(C)(C)C)CC2)nn1` [Boc-KS] the figure was > 100 µM; with `CCCCC1=CC2=CC(=O)C(C)(OC(=O)CC)C(=O)C2=CN1c1ccccc1` (stereo not drawn) [CMLD003542], > 100 µM. As for `CCc1nnc(NC(=O)CSc2nc3cccnc3n2C2CCCCC2)s1` [MLS000073979], the concentration giving a half-maximal response (EC50) under setting [1] was determined as 45.9 µM. This counts as double-digit micromolar. `CCCc1cc(C(=O)Nc2sc3c(c2C(=O)OCC)CCCC3)no1` [MLS000116384]: the EC50 was > 100 µM. Consider `CCOc1cc2[nH]c(=S)n(CCN3CCCCC3CC)c(=O)c2cc1OCC` (stereo not drawn) [MLS000520831], for which the EC50 was > 100 µM. Still for that read-out and setting: the figure for `CCN1C(c2ccccc2)=C(c2ccccc2)S/C1=C\C=C1/SC(=S)N(C)C1=O` [MLS000526292] is 7.9 µM; for `CC1CCN(S(=O)(=O)c2ccc3nc(-c4ccccn4)cc(C(=O)NCCN(C)Cc4ccccc4)c3c2)CC1` [MLS000682486] it is > 100 µM; for `C=CCn1c(SCC(=O)N2CCN(c3ccccc3)CC2)nc2c([nH]c3ccccc32)c1=O` [MLS001236003] it is > 100 µM. The same measure, in the same setting: with `COc1ccc(OC)c2sc(N(CCCN(C)C)C(=O)c3ccc(S(=O)(=O)N4CCc5ccccc5C4)cc3)nc12` [MLS001239200] the figure was > 100 µM; with `Cc1cc(C)c2sc(N(CCCN(C)C)C(=O)c3ccc(S(=O)(=O)N4CCc5ccccc5C4)cc3)nc2c1` [MLS001239249], > 100 µM. Still for that read-out and setting: the figure for `COc1cccc2sc(N(CCCN(C)C)C(=O)c3ccc(S(=O)(=O)N4CCc5ccccc5C4)cc3)nc12` [MLS001239312] is > 100 µM.

Take `CCc1ccc2nc(N(CCCN(C)C)C(=O)c3ccc(S(=O)(=O)N4CCc5ccccc5C4)cc3)sc2c1` [MLS001239341]: the EC50 was > 100 µM.

For `CCOc1cccc2sc(N(CCCN(C)C)C(=O)c3ccc(S(=O)(=O)N(C)Cc4ccccc4)cc3)nc12` [MLS001239362], the EC50 is > 100 µM. Same read-out and setting: with `COc1ccc2sc(N(CCCN(C)C)C(=O)c3ccc(S(=O)(=O)N4CCc5ccccc5C4)cc3)nc2c1` [MLS001239377] the figure was > 100 µM. On the same count and under the same terms, the figure for `Cc1ccc2nc(N(CCCN(C)C)C(=O)c3ccc(S(=O)(=O)N4CCc5ccccc5C4)cc3)sc2c1` [MLS001239478] is > 100 µM; for `COc1cccc2sc3ccc(NCCC4CCCN4C)cc3c(=O)c12` (stereo not drawn) [MLS001249993] it is > 100 µM. The same measure, in the same setting: with `NC(=NOS(=O)(=O)c1ccc2ccccc2c1)c1ccncc1` [N'-[(2-naphthylsulfonyl)oxy]-4-pyridinecarboximidamide] the figure was > 100 µM. `COc1cc2c(cc1NC(=O)c1cc(-c3cccnc3)nc3ccc(C)cc13)oc1ccccc12` [N-(2-methoxydibenzofuran-3-yl)-6-methyl-2-pyridin-3-ylquinoline-4-carboxamide]: the EC50 was > 100 µM.

Regarding `CCN(CC)CCNC(=O)c1cc(-c2cccnc2)nc2ccc(S(=O)(=O)N3CCC(C)CC3)cc12` [N-[2-(diethylamino)ethyl]-6-[(4-methyl-1-piperidinyl)sulfonyl]-2-(3-pyridinyl)-4-quinolinecarboxamide], the EC50 is > 100 µM. On the same count and under the same terms, the figure for `CC(C)C(=O)N1CCN(c2ccc(NC(=O)COc3ccccc3[N+](=O)[O-])cc2)CC1` [N-[4-(4-isobutyryl-1-piperazinyl)phenyl]-2-(2-nitrophenoxy)acetamide] is > 100 µM. Same read-out and setting: with `CSc1cccc(NC(=S)NC(=O)CCc2ccccc2)c1` [N-[(3-methylsulfanylphenyl)carbamothioyl]-3-phenyl-propanamide] the figure was > 100 µM; with `CCCCNc1c(-c2cccc(-c3ccc(OC)cc3)c2)nc2ccc(C)cn12` [N-butyl-2-[3-(4-methoxyphenyl)phenyl]-6-methylimidazo[1,2-a]pyridin-3-amine;2,2,2-trifluoroacetic acid], > 100 µM; with `CCOc1ccc2nc(O)c(CN(CCO)C(c3nnnn3C3CCCCC3)C(C)C)cc2c1` (stereo not drawn) [SMR000004541], > 100 µM.

As to `CCOc1cc2[nH]c(=S)n(CC3CCCN3CC)c(=O)c2cc1OCC` (stereo not drawn) [SMR000030998], the EC50 is > 100 µM. On to `CCSc1nc(O)c(CC)c(=O)n1C(C)CC` (stereo not drawn) [SMR000103074], for which the EC50 was > 100 µM.

With `COc1ccc2[nH]c(=O)c(CN(Cc3ccco3)C(c3nnnn3Cc3ccccc3)C(C)C)cc2c1` (stereo not drawn) [SMR000123514], the EC50 was > 100 µM. The same measure, in the same setting: with `CC1=NOC(=O)/C1=C\c1ccc(-c2cc(Cl)ccc2Cl)o1` [SMR000141784] the figure was > 100 µM. On the same count and under the same terms, with `O=c1oc2cc(OCc3ccc([N+](=O)[O-])cc3)ccc2c2c1CCCC2` [SMR000176214] the figure was > 100 µM.
